Measurements taken from patent publication US20080161232A1, “C5a Receptor Antagonist” (JERINI AG, priority 2005, published 2008).
Read-outs that look alike come from different tables or passages of the source. Starred links: 1 amine or outer side, 2 acyl side, 3 side chain; linkers in the order of their positions; H or OH if unused. Positions of bridges follow the written chain, without caps; N, C: chain ends. Non-standard residues stand in square brackets, D forms with d. Residues, ends and D or L forms follow the SMILES beside them. X1 = COC1O[C@H](C(=O)[*:2])[C@@H](O)[C@H](O)[C@H]1N[*:1]; Dip = N[C@H](C(=O)O)C(c1ccccc1)c1ccccc1; Hyp = O=C(O)[C@@H]1C[C@@H](O)CN1; dCha = N[C@H](CC1CCCCC1)C(=O)O; AllylGly = C=CC[C@H](N)C(=O)O; Nle = CCCC[C@H](N)C(=O)O; Orn = NCCC[C@H](N)C(=O)O

Experiments:
C5aR [1] = biological target: T1, C5aR (Homo sapiens, UniProt P21730); conditions: PMN membranes, cited from earlier work
T1 construct: measurements with isolated membranes from polymorphonuclear neutrophilic granulocytes (PMN membranes); host or cells: isolated PMN membranes (endogenous receptor)
T1 sequence (P21730 1-350): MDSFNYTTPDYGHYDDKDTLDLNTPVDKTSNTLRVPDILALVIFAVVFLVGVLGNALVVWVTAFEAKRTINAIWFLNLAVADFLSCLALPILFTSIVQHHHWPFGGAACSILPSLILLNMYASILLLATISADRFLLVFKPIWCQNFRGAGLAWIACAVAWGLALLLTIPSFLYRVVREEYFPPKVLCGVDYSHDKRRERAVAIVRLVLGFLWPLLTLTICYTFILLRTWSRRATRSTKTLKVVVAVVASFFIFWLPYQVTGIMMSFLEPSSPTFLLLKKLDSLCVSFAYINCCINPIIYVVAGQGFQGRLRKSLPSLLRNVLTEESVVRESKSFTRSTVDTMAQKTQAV

[2] = Solubility determination for selected C5aR-antagonists; format: physicochemical; conditions: for Solubility in 20 mM HEPES pH 7.4 (% of 200 μM): 20 mM HEPES pH 7.4, 24 h at RT
Procedure: Solubility Determination for Selected C5aR-Antagonists
[…] The undissolved part was removed by centrifugation after 24 h. The UV-absorption of the supernatant was measured and compared to a reference solution of the compound in 60% MeOH.

[3] = Measurement of the AB-permeability in a TC-7 based assay-system; format: in vitro ADME; conditions: human
Procedure: Measurement of the AB-Permeability in a TC-7 Based Assay-System The screening compounds are diluted to a 50 μM solution in HBSS-MES (5 mM, pH 6.5) from 10 mM stock solution in 100% DMSO. ^14C-mannitol (approx. 4 μM) is added to the sample. The solution is centrifuged and the supernatant is added to the apical side of the TC-7 cell culture (passage 15, in 24 well transwell plate) to a final DMSO-concentration of 1%. HBSS-HEPES (5 mM, pH 7.4) is placed at the basolateral side. The cells were incubated for 120 min at 37° C.

human C5aR(CD88) [4] = biological target: T2, human C5aR(CD88) (Homo sapiens, UniProt P21730); assay: Determination of EC50-values in an enzyme release assay (agonistic activity); format: cell-based; conditions: for agonistic activity (in words): cellular assay, up to a concentration of at least 1430 nM
T2 construct: expressed in transfected cells; host or cells: rat basophilic leukemia cells (RBL)
T2 sequence (P21730 1-350): T1 sequence (P21730 1-350)
Procedure: The assay procedure was described by Kohl (Kohl 1997 The Anaphylatoxins. In: Dodds, A. W., Sim, R. B. (Eds.), Complement: A Practical Approach. Oxford, pp. 135-163). Basophilic leukemia cells from rats (RBL), which express the human C5aR(CD88), were cultivated in DMEM with 10% fetal bovine serum, 100 U/ml penicillin, 100 μg/ml streptomycin and 2 mM glutamine (all components of the media from Biochrome, Berlin) to confluence at 37° C. and 10% CO2. The following specifications refer to single cell culture flask having a surface of 75 cm^2. Medium was decanted from cells. Cells were washed with 10 ml PBS (Dulbecco's PBS, Biochrome) and subsequently overlayed with 3 ml Cell Dissociation Solution (CDS, Sigma). Cells were incubated for 1 min at room temperature. Subsequently, CDS was removed and the cells were further incubated for 10-15 min at 37° C. for dissociation. In the assay, 20 μl of the solution containing the compound to be tested were used. This solution should not contain more than 2.8% DMSO. For the dilution process, the compounds were diluted in ⅓ or ½ steps. To 20 μl compound solution 75 μl of the RBL-cells were added, which were treated as follows: after dissociation cells were detached and warmed at 37° C. in 10 ml HAG-CM (20 mM HEPES; 125 mM NaCl, 5 mM KCl, 1 mM CaCl2, 1 mM MgCl2, 0,5 mM Glucose, 0,25% BSA. HEPES-preparation: 2.3 g/l HEPES-salt +2.66 g/l HEPES acid). Cells were counted and centrifuged (200×g, 10 min). The cell pellet was resuspended in preheated HAG-CM (i.e. Hepes-buffer NaCl-glucose-solution with calcium and magnesium), and the cell density was adjusted to 2×10^6 cells/ml. The cells were incubated at 37° C. for 5 min. Per ml cell suspension 27 μl of a cytochalasin B-solution were added (100 μg/ml in DMSO, Sigma). The cells were incubated for further 3 min at 37° C. 75 μl of the cell suspension were added to 20 μl compound solution leading to a volume of 95 μl per well. After incubation of the cells for 10 min at 37° C. 10 μl hrC5a (10.5 nM in HAG-CM, Sigma) per well were added. The cells were incubated for additional 5 min at 37° C. The mtp was then transferred to ice and centrifuged for 3 min at 4° C. with 1200×g. 75 μl of the supernatant were added to 100 μl substrate-solution (2.7 mg/ml p-nitrophenyl-N-acetyl-β-D-glucosaminide (Sigma) in 42.5 mM Na-acetate pH 4.5). The mtp was incubated for further 60 min at 37° C. 75 μl 0.4 M glycine pH 10.4 were added per well. The mtp was transferred into a reader and the absorption at 405 nm was measured. IC50-values were obtained following the equation; y=((A-D)/(1+(x/C)^B))+D.
Determination of EC50-Values in an Enzyme Release Assay
The determination of EC50-values was performed according to the procedure given in example II, with the exception that 30 μl of the test compound need to be mixed with 75 μl of the cell suspension mentioned in example 11. Neither preincubation nor addition of C5a for stimulation of enzyme release is needed.

human C5aR(CD88) [5] = biological target: T2, human C5aR(CD88); assay: Determination of the IC50 value in an enzyme release assay (functional assay, antagonistic activity); format: cell-based; conditions: for inhibitory activity (in words): functional assay of example 11, noteworthy = IC50 less than 200 nM; for IC50: antagonistic activity, IC50 group in enzyme release assay, RBL cells expressing human C5aR(CD88), read-out: activity (group)
C5aR [6] = biological target: T1, C5aR; conditions: compound numbers of WO 03/033528; read-out: IC50 as a measure for affinity, WO 03/033528; cited from earlier work
[7] = examples of WO 90/09162, read-out: IC50 (binding), WO 90/09162
[8] = agonistic activity, no C5a added, read-out: EC50
[9] = examples of WO 92/12168, read-out: IC50 (binding to C5aR), WO 92/12168

Solubility in 20 mM HEPES pH 7.4 (% of 200 μM) [2] | agonistic activity (in words) (human C5aR(CD88) [4]) | inhibitory activity (in words) (human C5aR(CD88) [5]) | IC50 (human C5aR(CD88) [5]) [nM] | Compound | further results
– | – | – | – | Ac-Phe-Lys-Ala-Cha-Ala-Leu-N-Methyl(D)ala-Arg-OH | IC50 (C5aR [1]; [7]): 12 nM
– | – | – | – | (N-Ethyl)Phe-Lys-Ala-Cha-Ala-Leu-N-Methyl(D)ala-Arg-OH | IC50 (C5aR [1]; [7]): 11 nM
– | – | – | – | CC(C)NCC(O)COc1cccc2ccccc12 (centres unmarked) [Propanolol, reference compound] | Papp A→B at 120 min, 50 μM ([3]; Caco-2, values in text): 31.1 ×10⁻⁶ cm/s
93 % of 200 μM | pure antagonists | noteworthy inhibitory activity | – | CCCC[C@@H]1NC(=O)[C@H](Cc2c[nH]c3ccccc23)NC(=O)[C@@H](CC2CCCCC2)NC(=O)[C@@H]2CCCN2C(=O)[C@@H](NC(=O)[C@H](Cc2ccccc2)NC(=O)[C@H](CCCCN)NC(C)=O)CCCNC1=O [Compound 43, Ac-Lys-Phe-[Orn-Pro-cha-Trp-Nle]] (Ac-KF[Orn]P[dCha]W[Nle]; lactam 3-C) | –
– | pure antagonists | without significant loss of activity | 5 to 10 | C=CC[C@@H]1NC(=O)[C@H](Cc2c[nH]c3ccccc23)NC(=O)[C@@H](CC2CCCCC2)NC(=O)[C@@H]2CCCN2C(=O)[C@@H](NC(=O)[C@H](Cc2ccccc2)NC(C)=O)CCCNC1=O [Compound 33, Ac-Phe-[Orn-Pro-cha-Trp-Eaf]] (Ac-F[Orn]P[dCha]W[AllylGly]; lactam 2-C) | EC50 (human C5aR(CD88) [4]; [8]): > 1430 nM; inhibitory activity (in words) (human C5aR(CD88) [5]; listed as Ac-Phe-[Orn-Pro-cha-Trp-Eaf]): noteworthy inhibitory activity
– | – | – | > 2000 | CC(=O)N[C@@H](Cc1ccccc1)C(=O)N[C@H]1CCCNC(=O)[C@H](CCCNC(=N)N)NC(=O)[C@H](Cc2c[nH]c3ccccc23)NC(=O)[C@@H](C)NC(=O)[C@@H]2CCCN2C1=O [compound 47] | IC50 (C5aR [6]): 24000 nM
– | – | – | – | (N-Methyl)Phe-Lys-Pro-cha-ψ55 CH2—N(CH2CH2C6H5)}-Arg-OH | IC50 (C5aR [1]; [9]): 360 nM
– | pure antagonists | – | 200 to 2000 | CC(=O)N[C@H](C(=O)N[C@@H](CCCN)C(=O)N1CCC[C@H]1C(=O)N[C@H](CC1CCCCC1)C(=O)N[C@@H](Cc1c[nH]c2ccccc12)C(=O)N[C@@H](Cc1ccccc1)C(N)=O)C(c1ccccc1)c1ccccc1 [Compound 71, Ac-Ebw-Orn-Pro-cha-Trp-Phe-NH2] (Ac-[Dip][Orn]P[dCha]WF-NH2) | EC50 (human C5aR(CD88) [4]; [8]): > 100000 nM
45 % of 200 μM | pure antagonists | noteworthy inhibitory activity | 10 to 20 | CCCC[C@@H]1NC(=O)[C@H](Cc2c[nH]c3ccccc23)NC(=O)[C@@H](CC2CCCCC2)NC(=O)[C@@H]2CCCN2C(=O)[C@@H](NC(=O)[C@@H](N)Cc2ccccc2)CCCNC1=O [Compound 42, H-Phe-[Orn-Pro-cha-Trp-Nle]] (H-F[Orn]P[dCha]W[Nle]; lactam 2-C) | EC50 (human C5aR(CD88) [4]; [8]): > 1430 nM
84 % of 200 μM | – | – | – | CCCC[C@@H]1NC(=O)[C@H](Cc2c[nH]c3ccccc23)NC(=O)[C@@H](CC2CCCCC2)NC(=O)[C@@H]2CCCN2C(=O)[C@@H](NC(=O)[C@H](Cc2ccccc2)NC(=O)[C@H]2OC(OC)[C@H](NC(C)=O)[C@@H](O)[C@@H]2O)CCCNC1=O (stereo partly drawn) [Compound 4, X-Phe-[Orn-Pro-cha-Trp-Nle]; X = 2-acetamido-1-methyl-glucuronyl] (Ac-[X1]F[Orn]P[dCha]W[Nle]; lactam 3-C) | solubility in aqueous HEPES buffer (pH 7.4) [2]: 84%
22 % of 200 μM | – | without significant loss of activity | 20 to 50 | CCCC[C@@H]1NC(=O)[C@H](Cc2c[nH]c3ccccc23)NC(=O)[C@@H](CC2CCCCC2)NC(=O)[C@@H]2CCCN2C(=O)[C@@H](NC(=O)[C@H](Cc2ccccc2)NC(C)=O)CCCNC1=O [Compound 28, Ac-Phe-[Orn-Pro-cha-Trp-Nle]] (Ac-F[Orn]P[dCha]W[Nle]; lactam 2-C) | EC50 (human C5aR(CD88) [4]; [8]): > 1430 nM; solubility in aqueous HEPES buffer (pH 7.4) [2]: 22%; inhibitory activity (in words) (human C5aR(CD88) [5]; listed as Ac-Phe-[Orn-Pro-cha-Trp-Nle]): noteworthy inhibitory activity
– | – | – | – | (N-Methyl)Phe-Lys-Pro-cha-Phe-Phenylbutanoyl | IC50 (C5aR [1]; [9]): 2600 nM

Compound | Solubility in 20 mM HEPES pH 7.4 (% of 200 μM) [2] | agonistic activity (in words) (human C5aR(CD88) [4]) | inhibitory activity (in words) (human C5aR(CD88) [5]) | IC50 (human C5aR(CD88) [5]) [nM] | further results
CC(=O)N[C@@H](Cc1ccccc1)C(=O)N[C@H]1CCCNC(=O)[C@H](CCCNC(=N)N)NC(=O)[C@H](Cc2c[nH]c3ccccc23)NC(=O)[C@@H](CC2CCCCC2)NC(=O)[C@@H]2CCCN2C1=O [Compound 40, Ac-Phe-[Orn-Pro-cha-Trp-Arg], reference compound] | 94 % of 200 μM | – | – | – | solubility in aqueous HEPES buffer (pH 7.4) [2]: 94%
CC(=O)N[C@@H](Cc1ccccc1)C(=O)N[C@H]1CCCNC(=O)[C@H](Cc2ccccc2)NC(=O)[C@H](Cc2c[nH]c3ccccc23)NC(=O)[C@@H](CC2CCCCC2)NC(=O)[C@@H]2C[C@@H](O)CN2C1=O [Compound 2, Ac-Phe-[Orn-Hyp-cha-Trp-Phe]] (Ac-F[Orn][Hyp][dCha]WF; lactam 2-C) | 13 % of 200 μM | pure antagonists | noteworthy inhibitory activity | 20 to 50 | Papp A→B at 120 min, 50 μM ([3]; Caco-2, TC-7 cells, 50 μM, apical pH 6.5, basolateral pH 7.4, 120 min at 37° C.): 14.2 ×10⁻⁶ cm/s; Papp A→B at 120 min, 50 μM ([3]; Caco-2, values in text): 14.3 ×10⁻⁶ cm/s; EC50 (human C5aR(CD88) [4]): > 1430 nM; solubility in aqueous HEPES buffer (pH 7.4) [2]: 13%
